Our source for the IC50 values is US20250368614A1, “COMPOUNDS AND METHODS FOR YAP/TEAD MODULATION AND INDICATIONS THEREFOR” (OPNA BIO SA, priority 2023, published 2025).

Molecules are shown by their SMILES.

The assay has as its system TEAD-dependent transcription (12XGTIIC TEAD response element luciferase reporter) in MSTO-211H cells. In words: TEAD-dependent transcription cell-based luciferase reporter assay in MSTO-211H+12XGTIIC cells. To be noted: Homo sapiens; MSTO-211H+12XGTIIC reporter cells, 24 hours compound incubation, luminescence normalized to cell viability signal, geometric mean; read-out: MSTO-211H GMean IC50 (uM) Cell Assay Reporter Cell Variant: TEAD. The source says:
Determine Inhibitor Activity Against TEAD-Dependent Transcription in a Cell-Based Reporter Assay
The human mesothelioma cell line MSTO-211H was stably transfected with a pGL4.21 plasmid containing a synthetic promoter with 12 copies of the GTIIC TEAD response element that drives the expression of a luciferase reporter gene^1 using Lipofectamine transfection reagent (Thermo Fisher). Transfected cells were selected using puromycin and single cell clones expressing this construct (referred to as MSTO-211H+12XGTIIC) were generated by limiting dilution. MSTO-211H cells was characterized by genetic alterations in key components of the Hippo pathway^2, resulting in up-regulation of YAP/TEAD-mediated transcription. […] To evaluate TEAD inhibitors, the MSTO-211H+12XGTIIC cell line was seeded in a 96-well plate in 50 μL of culture media at 1×10^4 cells per well and incubated at 37° C. overnight. Serial dilutions of compounds (in total volume of 50 μL of culture media) were added to the cells and incubated at 37° C. for 24 hours. Each plate included cells treated with DMSO as high controls and cells treated with 20 μM of the reference compound K-975 (a known TEAD inhibitor^3) as low controls. Cell viability was assayed by the addition of 25 μL of CellTiter-Fluor reagent (Promega) followed by a 30-minute incubation at 37° C. and quantification of the fluorescence signal (Ex400/Em505). Subsequently, luciferase expression was assayed by the addition of 25 μL of ONE-Glo reagent (Promega) followed by a 10-minute incubation at room temperature and quantification of the luminescence signal. The luminescence signal was normalized to the fluorescence signal to correct for any loss in cell viability over the 24-hour compound incubation period. The percentage of inhibition of normalized luminescence signal, indicative of compound-mediated inhibition of TEAD-dependent transcription, at individual compound concentrations relative to high and low controls was calculated. The data were analyzed by using nonlinear regression to generate IC50 values for individual compounds.
For `CN(c1ccc(C(F)(F)F)cc1)c1cccc2c1CCN(C(=O)CCS(=O)(=O)C(F)(F)F)C2` [Compound O-0016, 1-(5-(methyl(4-(trifluoromethyl)phenyl)amino)-3,4-dihydroisoquinolin-2(1H)-yl)-3-((trifluoromethyl)sulfonyl)propan-1-one], the IC50 fell in the range of 0.001 to 10 µM.

As for `C=CC(=O)Nc1cccc(C(=O)N2CCc3c(cccc3N(C)c3ccc(C(F)(F)F)cc3)C2)c1` [Compound O-0017, N-(3-(5-(methyl(4-(trifluoromethyl)phenyl)amino)-1,2,3,4-tetrahydroisoquinoline-2-carbonyl)phenyl)acrylamide], the IC50 fell in the range of 0.001 to 10 µM.

`C=CC(=O)Nc1cccc(C(=O)N2CCc3c(cccc3N(C)c3ccc(C(F)(F)F)cc3)C2)n1` [Compound O-0018, N-(6-(5-(methyl(4-(trifluoromethyl)phenyl)amino)-1,2,3,4-tetrahydroisoquinoline-2-carbonyl)pyridin-2-yl)acrylamide]: the IC50 lay within 0.001 to 10 µM.

Consider `C=CC(=O)Nc1ccc(C(=O)N2CCc3c(cccc3N(C)c3ccc(C(F)(F)F)cc3)C2)cc1` [Compound O-0019, N-(4-(5-(methyl(4-(trifluoromethyl)phenyl)amino)-1,2,3,4-tetrahydroisoquinoline-2-carbonyl)phenyl)acrylamide], for which the IC50 was 0.001 to 10 µM.

For `O=C(CCS(=O)(=O)C(F)(F)F)N1CCc2c(cccc2Nc2ccc(C(F)(F)F)nc2)C1` [Compound O-0020, 1-(5-((6-(trifluoromethyl)pyridin-3-yl)amino)-3,4-dihydroisoquinolin-2(1H)-yl)-3-((trifluoromethyl)sulfonyl)propan-1-one], the IC50 fell in the range of 0.001 to 10 µM.

Consider `O=C(CCS(=O)(=O)C(F)(F)F)N1CCc2c(cccc2Nc2ccc(C(F)(F)F)cn2)C1` [Compound O-0021, 1-(5-((5-(trifluoromethyl)pyridin-2-yl)amino)-3,4-dihydroisoquinolin-2(1H)-yl)-3-((trifluoromethyl)sulfonyl)propan-1-one], for which the IC50 lay within 0.001 to 10 µM.

For the molecule `CN(c1ccc(C(F)(F)F)cn1)c1cccc2c1CCN(C(=O)CCS(=O)(=O)C(F)(F)F)C2` [Compound O-0022, 1-(5-(methyl(5-(trifluoromethyl)pyridin-2-yl)amino)-3,4-dihydroisoquinolin-2(1H)-yl)-3-((trifluoromethyl)sulfonyl)propan-1-one], the IC50 was 0.001 to 10 µM.

For `CN(c1ccc(C(F)(F)F)nc1)c1cccc2c1CCN(C(=O)CCS(=O)(=O)C(F)(F)F)C2` [Compound O-0023, 1-(5-(methyl(6-(trifluoromethyl)pyridin-3-yl)amino)-3,4-dihydroisoquinolin-2(1H)-yl)-3-((trifluoromethyl)sulfonyl)propan-1-one], the IC50 is 0.001 to 10 µM.

With `O=C(CCS(=O)(=O)C(F)(F)F)N1CCc2c(ncnc2Nc2ccc(C(F)(F)F)cc2)C1` [Compound O-0024, 1-(4-((4-(trifluoromethyl)phenyl)amino)-5,8-dihydropyrido[3,4-d]pyrimidin-7(6H)-yl)-3-((trifluoromethyl)sulfonyl)propan-1-one], the IC50 is 0.001 to 10 µM.

On to `CN(c1ccc(C(F)(F)F)cc1)c1ncnc2c1CCN(C(=O)CCS(=O)(=O)C(F)(F)F)C2` [Compound O-0025, 1-(4-(methyl(4-(trifluoromethyl)phenyl)amino)-5,8-dihydropyrido[3,4-d]pyrimidin-7(6H)-yl)-3-((trifluoromethyl)sulfonyl)propan-1-one], for which the IC50 was 0.001 to 10 µM.

For `O=C(Cc1cn[nH]c1)N1CCc2c(cccc2Nc2ccc(C(F)(F)F)cc2)C1` [Compound O-0026, 2-(1H-pyrazol-4-yl)-1-(5-((4-(trifluoromethyl)phenyl)amino)-3,4-dihydroisoquinolin-2(1H)-yl)ethan-1-one], the IC50 is 0.001 to 10 µM.

Take `O=C(c1cccc2[nH]ccc12)N1CCc2c(cccc2Nc2ccc(C(F)(F)F)cc2)C1` [Compound O-0027, (1H-indol-4-yl)(5-((4-(trifluoromethyl)phenyl)amino)-3,4-dihydroisoquinolin-2(1H)-yl)methanone]: the half-maximal inhibitory concentration (IC50) was 0.001 to 10 µM.

In the case of `Nc1cccc(C(=O)N2CCc3c(cccc3Nc3ccc(C(F)(F)F)cc3)C2)c1` [Compound O-0028, (3-aminophenyl)(5-((4-(trifluoromethyl)phenyl)amino)-3,4-dihydroisoquinolin-2(1H)-yl)methanone], the 50% inhibitory concentration (IC50) was 10 to 100 µM.

`Nc1cccc(C(=O)N2CCc3c(cccc3Nc3ccc(C(F)(F)F)cc3)C2)n1` [Compound O-0029, (6-aminopyridin-2-yl)(5-((4-(trifluoromethyl)phenyl)amino)-3,4-dihydroisoquinolin-2(1H)-yl)methanone]: the concentration for half-maximal inhibition (IC50) fell in the range of 10 to 100 µM.

For `Nc1ccnc(C(=O)N2CCc3c(cccc3Nc3ccc(C(F)(F)F)cc3)C2)c1` [Compound O-0030, (4-aminopyridin-2-yl)(5-((4-(trifluoromethyl)phenyl)amino)-3,4-dihydroisoquinolin-2(1H)-yl)methanone], the IC50 is 0.001 to 10 µM.

With `Nc1cncc(C(=O)N2CCc3c(cccc3Nc3ccc(C(F)(F)F)cc3)C2)c1` [Compound O-0031, (5-aminopyridin-3-yl)(5-((4-(trifluoromethyl)phenyl)amino)-3,4-dihydroisoquinolin-2(1H)-yl)methanone], the IC50 was in the range of 0.001 to 10 µM.

Regarding `Nc1cc(C(=O)N2CCc3c(cccc3Nc3ccc(C(F)(F)F)cc3)C2)ccn1` [Compound O-0032, (2-aminopyridin-4-yl)(5-((4-(trifluoromethyl)phenyl)amino)-3,4-dihydroisoquinolin-2(1H)-yl)methanone], the IC50 was 0.001 to 10 µM.

On to `Nc1nccc(C(=O)N2CCc3c(cccc3Nc3ccc(C(F)(F)F)cc3)C2)n1` [Compound O-0033, (2-aminopyrimidin-4-yl)(5-((4-(trifluoromethyl)phenyl)amino)-3,4-dihydroisoquinolin-2(1H)-yl)methanone], for which the IC50 is 0.001 to 10 µM.

On to `C=CC(=O)Nc1cccc(C(=O)N2CCc3c(cccc3Nc3ccc(C(F)(F)F)cc3)C2)c1` [Compound O-0034, N-(3-(5-((4-(trifluoromethyl)phenyl)amino)-1,2,3,4-tetrahydroisoquinoline-2-carbonyl)phenyl)acrylamide], for which the IC50 was 0.001 to 10 µM.

With `C=CC(=O)Nc1cccc(C(=O)N2CCc3c(cccc3Nc3ccc(C(F)(F)F)cc3)C2)n1` [Compound O-0035, N-(6-(5-((4-(trifluoromethyl)phenyl)amino)-1,2,3,4-tetrahydroisoquinoline-2-carbonyl)pyridin-2-yl)acrylamide], the IC50 was 0.001 to 10 µM.

In the case of `C=CC(=O)Nc1ccnc(C(=O)N2CCc3c(cccc3Nc3ccc(C(F)(F)F)cc3)C2)c1` [Compound O-0036, N-(2-(5-((4-(trifluoromethyl)phenyl)amino)-1,2,3,4-tetrahydroisoquinoline-2-carbonyl)pyridin-4-yl)acrylamide], the IC50 lay within 0.001 to 10 µM.

In the case of `C=CC(=O)Nc1cncc(C(=O)N2CCc3c(cccc3Nc3ccc(C(F)(F)F)cc3)C2)c1` [Compound O-0037, N-(5-(5-((4-(trifluoromethyl)phenyl)amino)-1,2,3,4-tetrahydroisoquinoline-2-carbonyl)pyridin-3-yl)acrylamide], the IC50 is 0.001 to 10 µM.

Regarding `C=CC(=O)Nc1cc(C(=O)N2CCc3c(cccc3Nc3ccc(C(F)(F)F)cc3)C2)ccn1` [Compound O-0038, N-(4-(5-((4-(trifluoromethyl)phenyl)amino)-1,2,3,4-tetrahydroisoquinoline-2-carbonyl)pyridin-2-yl)acrylamide], the IC50 lay in the range of 0.001 to 10 µM.

Take `C=CC(=O)Nc1nccc(C(=O)N2CCc3c(cccc3Nc3ccc(C(F)(F)F)cc3)C2)n1` [Compound O-0039, N-(4-(5-((4-(trifluoromethyl)phenyl)amino)-1,2,3,4-tetrahydroisoquinoline-2-carbonyl)pyrimidin-2-yl)acrylamide]: the IC50 lay in the range of 0.001 to 10 µM.

`CS(=O)(=O)c1nccc(C(=O)N2CCc3c(cccc3Nc3ccc(C(F)(F)F)cc3)C2)n1` [Compound O-0040, (2-(methylsulfonyl)pyrimidin-4-yl)(5-((4-(trifluoromethyl)phenyl)amino)-3,4-dihydroisoquinolin-2(1H)-yl)methanone]: the IC50 lay within 0.001 to 10 µM.

With `O=C(c1ccnc(Cl)n1)N1CCc2c(cccc2Nc2ccc(C(F)(F)F)cc2)C1` [Compound O-0041, (2-chloropyrimidin-4-yl)(5-((4-(trifluoromethyl)phenyl)amino)-3,4-dihydroisoquinolin-2(1H)-yl)methanone], the IC50 was 0.001 to 10 µM.

Take `CS(=O)(=O)c1nc(C(=O)N2CCc3c(cccc3Nc3ccc(C(F)(F)F)cc3)C2)c[nH]1` [Compound O-0045, (2-(methylsulfonyl)-1H-imidazol-4-yl)(5-((4-(trifluoromethyl)phenyl)amino)-3,4-dihydroisoquinolin-2(1H)-yl)methanone]: the IC50 was 0.001 to 10 µM.

Broadly, the IC50 is the concentration that gives 50% inhibition.
